This note sets out measurements from patent US9034794B2, “Method for post-emergence crabgrass control” (FMC Corporation, priority 2007, dated 2015).

For the experiment, the system named is Crabgrass (Digitaria sp.). Briefly: Post-emergence control of crabgrass in greenhouse pots, application at the 1-2 leaf growth stage. Type of experiment: in vivo. On the procedure:
The compositions of the present invention were tested for herbicidal efficacy in the following manner:
For post-emergence testing, three disposable 3 inch square pots for each rate of application of each herbicide solution were filled with a soil, comprised of peat moss, vermiculite, bark ash, pine bark, limestone and a wetting agent (Metro Mix® 360 artificial soil, Scotts Company, Marysville, Ohio), to which about 20 to 30 crabgrass seeds (Digitaria sp.) seeds were planted. The pots were placed in a greenhouse and watered daily, thus allowing the seeds to germinate and the foliage to develop for 11 days, until the crabgrass was at the 1-2 leaf growth stage.
Pots designated for treatment were placed on a conveyor belt and the conveyor belt fed under a spray nozzle mounted about ten inches above the postemergent foliage. The spray of herbicidal solution was commenced and once stabilized; the pots were passed under the spray at a speed to receive a coverage equivalent of 30 gallons per acre. The application rates are those shown in Table 1 below for the individual herbicidal solutions and the herbicide compositions of the present invention. The post-emergence pots were immediately placed in the green-house and not watered for 24 hours after treatment. Thereafter they were regularly watered at ground level. The control of crabgrass was evaluated in each experimental test from 1 to 22 days after treatment (DAT). The results, shown as an average of the replications, were compared with results observed in untreated control pots in the same tests. All test treatments contained 0.25% (by volume) of a non-ionic surfactant.
Percent control was determined by comparing the treated plants to the untreated control using the following rating system:
The results, shown as an average of the replications, were compared with results observed in untreated control plots in the same trials.

Consider `Cc1nn(-c2cc(NS(C)(=O)=O)c(Cl)cc2Cl)c(=O)n1C(F)F` [A, N-[2,4-dichloro-5-[4-(difluoromethyl)-4,5-dihydro-3-methyl-5-oxo-1H-1,2,4-triazol-1-yl]phenyl]methanesulfonamide], for which the Average % control is on record as 20% (0.25 lb AI/Acre, 1 DAT); 20% (0.25 lb AI/Acre, 3 DAT); 5% (0.25 lb AI/Acre, 7 DAT); 0% (0.25 lb AI/Acre, 14 DAT); 0% (0.25 lb AI/Acre, 22 DAT); 10% (0.375 lb AI/Acre, 1 DAT). For the same molecule, the Average % control is reported as 25% (0.375 lb AI/Acre, 3 DAT); 10% (0.375 lb AI/Acre, 7 DAT); 0% (0.375 lb AI/Acre, 14 DAT); 0% (0.375 lb AI/Acre, 22 DAT).
On to `CCCN(CCC)c1c([N+](=O)[O-])cc(C(F)(F)F)c(N)c1[N+](=O)[O-]` [B, 2,4-dinitro-N^3,N^3-dipropyl-6-(trifluoromethyl)-1,3-benzenediamine], for which the Average % control (0.75 lb AI/Acre, 1 DAT) is recorded as 0%; the Average % control (0.75 lb AI/Acre, 3 DAT) is on record as 0%; the Average % control (0.75 lb AI/Acre, 7 DAT) was found to be 0%; the Average % control (0.75 lb AI/Acre, 14 DAT) stood at 0%; the Average % control (0.75 lb AI/Acre, 22 DAT) was found to be 0%.
